Test results reported in patent US9914722B2, “Compounds for treating spinal muscular atrophy” (PTC Therapeutics Inc., priority 2012, dated 2018).
Entries after “also recorded” stand apart in the source; their conditions may differ.

Tests used:
Smn protein = Smn protein assay (Smn HTRF) in cultured cells; type: cell-based, human; details: for maximal fold induction / EC (1.5-fold): Homo sapiens, Fibroblast, GM03813 SMA Type 1 patient fibroblasts, 48 hours, HTRF; for maximal fold induction: 7-point concentration data, relative to vehicle, read-out: maximum fold (Fold) increase of Smn protein; for EC (1.5-fold): concentration producing 1.5 times Smn protein vs DMSO vehicle, read-out: EC1.5x for Smn protein expression; for Smn protein expression: SMA Type 1 patient fibroblast cells, 48 hour, SMN HTRF assay, FIG. 6
Procedure, shortened: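 SMA patient fibroblasts (5,000/well) were exposed to a 7-point, 3.16-fold compound dilution series for 48 hours at 37° C, in triplicate. Lysates were read by HTRF with anti-SMN d2/kryptate at 665/620 nm. Blank-corrected signal was expressed as fold over DMSO vehicle, giving the EC1.5x and the maximum fold increase.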

[1] = system: gems (Smn-dependent nuclear speckles) in SMA patient fibroblast cells; experiment: Gems count (Smn-dependent nuclear speckle count) assay; type: cell-based, human; details: Type 1 SMA patient fibroblasts, 48 hour, fluorescence microscopy, relative to DMSO, FIG. 7
Text: Gems Count (Smn-Dependent Nuclear Speckle Count) Assay
The level of Smn protein directly correlates with the amount of nuclear foci, also known as gems, produced upon staining the cell with a fluorescently labeled anti-Smn antibody (Liu and Dreyfuss, EMBO J., 1996, 15:3555). Gems are multi-protein complexes whose formation is nucleated by the Smn protein and the gems count assay is used to evaluate the level of Smn protein in the cell. As described herein, the gems count assay is used to quantify the level of Smn protein in SMA patient fibroblast cells treated with a test compound.
Protocol: Cells are thawed and incubated in DMEM-10% FBS for 72 hours, then trypsinized, counted and resuspended to 100,000 cells/mL in DMEM-10% FBS. The cell suspension (2 mL) is plated in a 6-well cell culture plate with a sterile cover slip and incubated for 3 to 5 hours. Test compounds are serially diluted 3.16-fold in 100% DMSO to generate a 7-point dilution curve. […]
Cell culture medium is aspirated from the wells containing cover slips and gently washed three times with cold PBS. […] The number of gems is counted per ≧150 nuclei and % activation is calculated using DMSO and 10 nM bortezomib as controls. For each test compound, the cells are examined at all wavelengths to identify test compounds with inherent fluorescence.

SMILES: C[C@@H]1CN(c2ccc3oc(-c4cn5ccccc5n4)cc(=O)c3c2)C[C@H](C)N1 [Cpd 17, 6-[(3R,5S)-3,5-dimethylpiperazin-1-yl]-2-(imidazo[1,2-a]pyridin-2-yl)-4H-chromen-4-one]
- maximal fold induction (Smn protein): > 1.65
- EC (1.5-fold) (Smn protein): 1 to 3 µM
- Smn protein expression (Smn protein): dose dependent increase in Smn protein expression

SMILES: COc1ccc(-c2cc(=O)c3cc(N4CCN[C@@H](C)C4)ccc3o2)cc1F [Cpd 38, 2-(3-fluoro-4-methoxyphenyl)-6-[(3S)-3-methylpiperazin-1-yl]-4H-chromen-4-one]
- maximal fold induction (Smn protein): 1.5 to 1.65
- EC (1.5-fold) (Smn protein): 0.3 to 1 µM
- Smn protein expression (Smn protein): dose dependent increase in Smn protein expression
- nuclear speckle counts (gems) [1]: progressively more gems relative to cells treated with DMSO; also recorded: increase in nuclear speckle counts (gems)
